This is an account of results in patent US4179467A, “Dopamine hydroxylase inhibiting 2-amino-cyclopent-1-ene-1-thiocarboxylic acid-disulfides” (Richter Gedeon Vegyeszeti Gyar Rt., priority 1976, dated 1979).

Read-outs that look alike come from different tables or passages of the source. Where only a bound is given, the exact number is not on record here.

Usually LD50 stands for the dose at which mortality reaches 50%. A low value points to a more toxic substance.

In data set [1] the test system is serotonine and 5-hydroxy-indolylacetic acid levels of the cerebrum. In words: Serotonine and 5-hydroxy-indolylacetic acid levels of the cerebrum (brain) in rats, % of controls. The format is in vivo, male Wistar rats. Particulars: rat; for response vs control in vivo at 500 mg/kg: po, p.o. The protocol: (§1) The tests were performed on male Wistar rats weighing 150 to 200 g. The dopamine-β-hydroxylase inhibiting effects of the compounds were evaluated by determining the change of noradrenaline, dopamine and adrenaline levels of the cerebrum, heart, spleen and adrenal gland. The serotonine and 5-hydroxy-indolylacetic acid levels of the cerebrum were also determined. The measurements were performed as follows:
(§2) The animals were decapitated, the cerebrum, heart, spleen and adrenal gland were removed quickly, and the organs were frozen by placing them on a metal sheet cooled with dry ice. The frozen organs were stored for a maximum of one night at -20° C.
In a further test series the serotonine and 5-hydroxy-indolylacetic acid contents were also determined, in addition to the determination of the noradrenaline and dopamine content, from the same sample. In this instance the brains were homogenized in 10 ml of 75% ethanol, 0.2 ml of EDTA-Na2 and 5% of ascorbic acid were added to the homogenized mixtures, and the homogenized mixtures were maintained at -20° C. overnight. The mixtures were centrifuged as described above, and 5.0 ml samples of the supernatant were removed. The samples were diluted with equal volumes of distilled water, and poured onto ion exchange columns of 0.5×1.5 cm dimensions, filled with buffered Amberlite CG-30 (200 to 400 mesh). The columns were washed with 5 ml of distilled water followed by 1.0 ml of 0.2 N hydrochloric acid, and the first effluent and the aqueous wash were collected for the determination of 5-hydroxy-indolylacetic acid. Elution was continued with a further 1.2 ml quantity of 0.2 N hydrochloric acid in order to remove noradrenaline, dopamine and serotonine. Samples of 0.3 ml were used for the determinations.
Noradrenaline and dopamine were determined by the method of Shellenberger, modified as described above, whereas serotonine was determined by the method of Curzon et al. (Brit. J. Pharmacol. 39, 653 (1970)). The basic method was modified as follows: A 0.5% solution of ortho-phthal(di)aldehyde in absolute ethanol was diluted with […] hydrochloric acid to 50-fold of its original volume, and 0.6 ml of the resulting 0.01% ortho-phthal(di)aldehyde solution were added immediately to 0.5 ml of the serotonine-containing sample. The sample was placed in a hot water bath for 10 minutes, thereafter cooled with tap water, and the flourescence was recorded at wavelengths of 360 nm (excitation) and 490 nm (emission).
5-Hydroxy-indolylacetic acid was determined from the mixture of the first effluent and the aqueous wash. 10 ml of distilled water and 0.2 ml of concentrated hydrochloric acid were added to the mixture, and the sample was poured onto a 0.8×4.0 cm column filled with Sephadex G-10. The column was washed with 15 ml of 0.1 N hydrochloric acid followed by 1.8 to 2.0 ml of 0.02 N aqueous ammonia, and then 5-hydroxy-indolylacetic acid was eluted with further 2.0 ml of the aqueous ammonia. 0.5 ml samples were used in the measurements, and the determination was performed according to the method of Korf et al. (Biochem. Pharmacol. 20, 659 (1971)).
In the tests disulfiram, 2,2-dipyridyl, bis(1-methyl-4-homopiperazinyl-thiocarbonyl)-disulfide, sodium diethyldithiocarbamate and N-phenyl-N'-(2-thiazolyl)-thiourea were used as reference substances. The values indicated in Table 1 are the percentages in relation to the amine levels of the controls measured in the same tests (±standard error). The statistical calculations were performed on a TPA/i type computer, using Student's t test.

Data set [2] relates to dopamine-β-hydroxylase. Particulars: literature, cited from earlier work; for dopamine-β-hydroxylase inhibiting effects, in words / duration of dopamine-β-hydroxylase inhibiting effect, in words: known compounds.
In data set [3] the test system is dopamine-β-hydroxylase. In words: Noradrenaline and dopamine levels of the cerebrum (brain) in rats, % of controls. Particulars: rat, i.p., 400 mg/kg, time not given. In kind it is in vivo, male Wistar rats. The protocol:
The dopamine-β-hydroxylase inhibiting effects of the new compounds according to the invention were examined by the following tests:
as §1, §2
The organs were weighed in the frozen state and then homogenized in 5.0 ml of 0.4 N perchloric acid containing 0.05% of EDTA-Naa and 0.1% of Na2 S2 O5. The homogenized mixtures were centrifuged as described above for the treatment of adrenal gland, the supernatants were decanted, and the pH was adjusted to 8.0±0.1 with a 0.1 molar tris buffer containing 20 g/l of NaOH and 25 g/l of EDTA-Na2. 100 mg of prepared Al2 O3 (Anton et al.: J. Pharm. Ther. 138, 360 (1962)) were added to the samples, and the mixtures were shaken mechanically for 20 minutes. Thereafter the Al2 O3 was washed with 2×10 ml of distilled water, and noradrenaline was eluted with 1.0 ml of 0.05 N perchloric acid. 0.5 ml samples of the eluate were used for the determination of noradrenaline. Noradrenaline was determined according to the method of Shellenberger et al. (Anal. Biochem. 39, 356 (1971)), with the following modifications of the basic procedure: 0.5 ml of 0.1 molar Na-K-phosphate buffer, containing 9 g/l of EDTA-Na2, were added to 0.5 ml of the eluate, and the catecholamines (noradrenaline in the examination of heart and spleen and noradrenaline and dopamine in the examination of the cerebrum) were oxidized with 0.1 ml of a 0.1 N iodine solution in 5% potassium iodide. After exactly 2 minutes, oxidation was stopped by adding 0.25 ml of a 2.5% sodium sulfite solution in 4.4 N aqueous sodium hydroxide to the mixture. 2 minutes after the introduction of the alkaline sulfite solution, 0.2 ml of concentrated acetic acid was added to the samples, whereupon the pH decreased to 4.4 to 4.5. Thereafter the samples were placed for 5 minutes in a drying oven heated to 100° C., and then the samples were cooled with ice water. The fluorescency of noradrenaline was measured with an OPTON spectrophotometer at wavelengths of 380 nm (excitation) and 490 nm (emission).
The brains were homogenized in 10 parts by volume of 0.4 N perchloric acid. The homogenized mixture was stored at -20° C. overnight; thereafter it was thawed and centrifuged as described above. A sample of the homogenized mixture corresponding to 0.5 g of brain was removed, the pH of the sample was adjusted to 8.0±0.1 with 0.1 molar tris-buffer of the above composition, and the sample was processed as described above for the determination of the noradrenaline content of heart and spleen, with the difference that 1.5 ml of 0.05 N perchloric acid was used as the eluting agent. 0.5 ml of the eluate was used to determine the noradrenaline and dopamine contents. The measurement was performed as described above, with the difference that samples of 0.5 ml were applied for the recording of the flourescence of noradrenaline. The residue was placed for 50 minutes into a drying oven heated to 100° C., thereafter the sample was cooled with ice water, and the fluorescence of dopamine was recorded at wavelengths of 325 nm (excitation) and 380 nm (emission).
In a further test series the serotonine and 5-hydroxy-indolylacetic acid contents were also determined, in addition to the determination of the noradrenaline and dopamine content, from the same sample. […]

Data set [4] in a line: in vivo. Particulars: mouse, in vivo, mice.
[5] abbreviates: ip, i.p., 4 hours, read-out: Brain SE level (percentages in relation to the controls).
[6] abbreviates: ip, i.p., 8 hours, read-out: Brain SE level (percentages in relation to the controls).
Setting [7] is: ip, i.p., 4 hours, read-out: Brain 5-HIAA level (percentages in relation to the controls).
[8] abbreviates: ip, i.p., 8 hours, read-out: Brain 5-HIAA level (percentages in relation to the controls).

`CCCCNC1=C(C(=S)SSC(=S)C2=C(NCCCC)CCC2)CCC1` [M-2, 2-(N-butyl)-amino-cyclopent-1-ene-thiocarboxylic acid-disulfide]: the response vs control in vivo at 200 mg/kg in data set [1] (setting [5]) is 97.6%; in data set [1] (setting [6]), 97.3 ± 11.3%.
Take `NNCc1ccccc1` [benzylhydrazine]: in data set [2], the “dopamine-β-hydroxylase inhibiting effects, in words” value is “exert dopamine-β-hydroxylase inhibiting effects” and the “duration of dopamine-β-hydroxylase inhibiting effect, in words” value was “only active for a short period”.
For `CCN(CC)C(=S)[S-].[Na+]` [DDC-Na, sodium diethyldithiocarbamate], in data set [3], the “Brain DA level (percentages in relation to the controls)” value stood at 120% and the “Brain NA level (percentages in relation to the controls)” value was 64.1%.
On to `O=C(CO)c1coc(=O)c2c(O)cccc12` [Oosponol], for which the LD50 in data set [4] (ip) was 40 mg/kg; in data set [4] (po), 280 mg/kg. For the same compound, the “dopamine-β-hydroxylase inhibiting effects, in words” value in data set [2] is “strong dopamine-β-hydroxylase inhibiting effects”.
The compound `NC1=C(C(=S)SSC(=S)C2=C(N)CCC2)CCC1` [M-1] came in with an LD50 in data set [4] (ip) of around 800 mg/kg. In addition, the response vs control in vivo at 200 mg/kg in data set [1] (setting [7]) is 152%; in data set [1] (setting [5]) it was 115 ± 4.7%; in data set [1] (setting [8]), 125 ± 10.7%; in data set [1] (setting [6]), 111 ± 5.1%.
Take `NNc1nncc2ccccc12` [Hydralazine]: the LD50 in data set [4] (ip) was found to be 83 mg/kg. Besides, in data set [2], the “dopamine-β-hydroxylase inhibiting effects, in words” value is reported as “possess dopamine-β-hydroxylase inhibiting effects”.
`Cn1cc[nH]c1=S` [methimazol]: the “dopamine-β-hydroxylase inhibiting effects, in words” value in data set [2] is given as “possess dopamine-β-hydroxylase inhibiting effects”.
`S=C(SSC(=S)C1=C(NC2CCCCC2)CCC1)C1=C(NC2CCCCC2)CCC1` [M-5, 2-(N-cyclohexyl)-amino-cyclopent-1-ene-thiocarboxylic acid disulfide] displayed an LD50 in data set [4] (ip) above 1000 mg/kg. Further, the response vs control in vivo at 200 mg/kg came to 143 ± 8% in data set [1] (setting [7]), 104 ± 7.6% in data set [1] (setting [5]), 178 ± 10.8% in data set [1] (setting [8]) and 105 ± 4.5% in data set [1] (setting [6]).
In the case of `NOCc1ccccc1` [Benzyloxyamine], in data set [2], the “dopamine-β-hydroxylase inhibiting effects, in words” value was “exert dopamine-β-hydroxylase inhibiting effects” and the “duration of dopamine-β-hydroxylase inhibiting effect, in words” value is “only active for a short period”.
Take `CC(N)Cc1ccccc1` (stereo not shown) [amphetamine]: the “dopamine-β-hydroxylase inhibiting effects, in words” value in data set [2] was “possess dopamine-β-hydroxylase inhibiting effects”.
`CCN(CC)C(=S)S` [diethyl dithiocarbamate]: in data set [2], the “dopamine-β-hydroxylase inhibiting effects, in words” value was “strong dopamine-β-hydroxylase inhibiting effects”.
Turning to `CN1CCCN(C(=S)SSC(=S)N2CCCN(C)CC2)CC1` [FLA-63, bis(1-methyl-4-homopiperazinyl)-thiocarbonyl-disulfide], the LD50 in data set [4] (ip) amounted to 150 mg/kg. Moreover, the response vs control in vivo at 50 mg/kg in data set [1] (setting [7]) is 134%; in data set [1] (setting [5]), 124%. For the same compound, the “dopamine-β-hydroxylase inhibition in vivo, in words” value in data set [2] (in vivo conditions) is “one of the most potent dopamine-β-hydroxylase inhibitors under in vivo conditions”.
For `C=CCNC1=C(C(=S)SSC(=S)C2=C(NCC=C)CCC2)CCC1` [M-7, 2-(N-allyl)-amino-cyclopent-1-ene-thiocarboxylic acid-disulfide], the median lethal dose (LD50) in data set [4] (ip) is above 1000 mg/kg. Moreover, the response vs control in vivo at 200 mg/kg in data set [1] (setting [7]) came out at 117 ± 6.5%; in data set [1] (setting [5]) it was 113 ± 8%; in data set [1] (setting [8]) it was 126 ± 10.5%; in data set [1] (setting [6]) it was 108%.
In the case of `CCNC1=C(C(=S)SSC(=S)C2=C(NCC)CCC2)CCC1` [M-6, 2-(N-ethyl)-amino-cyclopent-1-ene-thiocarboxylic acid-disulfide], the LD50 in data set [4] (ip) is 1000 to 1500 mg/kg. In addition, the response vs control in vivo at 100 mg/kg in data set [1] (ip, i.p., 100 mg/kg, 4 hours, read-out: Brain SE level (percentages in relation to the controls)) came to 107 ± 2.2%. In addition, the response vs control in vivo at 200 mg/kg in data set [1] (setting [7]) came to 155 ± 8.5%; in data set [1] (setting [5]) it was 112 ± 5.2%; in data set [1] (setting [8]), 195 ± 4.8%; in data set [1] (setting [6]) it was 104 ± 7.4%. Also, the response vs control in vivo at 500 mg/kg is 118 ± 4.6% in data set [1] (4 hours, read-out: Brain SE level (percentages in relation to the controls)) and 91.2 ± 0.9% in data set [1] (8 hours, read-out: Brain SE level (percentages in relation to the controls)).
Consider Dopastine, for which the “dopamine-β-hydroxylase inhibiting effects, in words” value in data set [2] is “strong dopamine-β-hydroxylase inhibiting effects”.
Consider `CCCCc1ccc(C(=O)O)nc1` [Fusaric acid, 5-butyl-picolinic acid], for which the LD50 in data set [4] (po) worked out at 230 ± 25 mg/kg. Also, the “dopamine-β-hydroxylase inhibiting effects, in words” value in data set [2] is “strong dopamine-β-hydroxylase inhibiting effects”.
